Measurements taken from patent US12419966B2, “In vivo radical-mediated polymerization for targeted delivery of trophic factors” (RUTGERS, THE STATE UNIVERSITY OF NEW JERSEY, priority 2017, dated 2025).

Test system: Rat cortical neurons
Assay: Rat cortical neuron cytotoxicity (MTT)
Assay type: cell-based
Conditions: above 500 μM
Description: Rat Cortical Neuron Culture and Cellular Protection Studies (Cytotoxicity and Protection): Rat cortical neurons were isolated from a timed pregnant animal at embryonic day 18 as described in the literature via techniques commonly employed in the literature. Neurons were cultured in Neurobasal media containing 2% B27 supplement, 1% KCl, 1% penicillin/streptomycin, and 0.5% L-glutamine and seeded into 96 well plates at a density of 100,000 cells/well. […] Cellular metabolic activity was then evaluated using the Vybrant MTT assay (Life Technologies) according to the manufacturer's instructions. […] Metabolic activity was again measured using the MTT assay.
(3-(4,5-dimethylthiazol-2-yl)-2,5-diphenyltetrazolium bromide) (MTT) was added to the cultures at 12 mM and allowed to incubate for 4 hours at 37° C. MTT was metabolized by mitochondrial activity to form an insoluble formazan product. The formazan product was solubilized by the addition of sodium dodecyl sulfate and further incubation for 4 hours. Absorbance measurements at 570 nm were collected to determine the amount of MTT that was metabolized by the culture and viability was reported as a percentage of MTT metabolized by uninjured control cultures.

O=C1O[C@H]([C@@H](O)CO)C(O)=C1O [ascorbic acid]
cellular activity of rat cortical neurons: decreases observed
